{"source": "paper PMC3725993", "about": "(Bioorganic & medicinal chemistry letters, 2013)", "key": {"[1]": {"conditions": "rat behavioral model; cited from earlier work"}, "[2]": {"conditions": "rats; cited from earlier work"}, "Water solubility": {"test": "Water solubility", "type": "physicochemical", "conditions": "statement in words"}}}
{"smiles": "CN1[C@@H](CC(=O)c2ccccc2)CCC[C@H]1C[C@H](O)c1ccccc1", "note": "[(−)-Lobeline]", "values": [{"measurement": "rewarding effects of methamphetamine", "setting": "[1]", "value": "decrease"}]}
{"smiles": "COc1ccc(CC[C@H]2CCC[C@@H](CCc3ccc(OC)cc3)N2C[C@@H](O)CO)cc1", "note": "[Compound 3]", "values": [{"measurement": "METH self-administration (SA) and reward", "setting": "[2]", "value": "blocked"}, {"measurement": "responding for food", "setting": "[2]", "value": "no effect"}]}
{"smiles": "COc1ccc(CC[C@@H]2CC[C@H](CCc3ccc(OC)cc3)N2C[C@@H](O)CO)cc1.Cl", "note": "[Compound 11d]", "values": [{"measurement": "water solubility", "setting": "Water solubility", "value": "water-soluble"}]}
{"smiles": "Cl.OC[C@H](O)CN1[C@H](CCc2ccc(OC(F)F)cc2)CC[C@@H]1CCc1ccc(OC(F)F)cc1", "note": "[Compound 11f]", "values": [{"measurement": "water solubility", "setting": "Water solubility", "value": "water-soluble"}]}
